Assay results taken from patent US11691962B2 (eXIthera Pharmaceuticals, Inc., priority 2018, dated 2023).

What was measured:
[1] = target: Factor XIa (Homo sapiens (Human), UniProt P03951); assay: Factor XIa enzyme inhibition assay (dose response, fluorogenic AMC substrate); assay type: biochemical; conditions: read-out: hFXIa IC50
Procedure, shortened: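 Human FXIa at 0.25 nM final with 50 μM final PyroGlu-Pro-Arg-AMC in 20 mM Hepes pH 7.4, 150 mM NaCl, 0.02% Tween 20. Two-fold serial compound dilutions; fluorescence read every minute for 30 min at 30° C. IC50 from a four-parameter Hill fit.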

[2] = target: Thrombin (Homo sapiens (Human), UniProt P00734); assay: Dose response assay for protease inhibitors: thrombin; assay type: biochemical; conditions: selectivity, thrombin over Factor XIa
Procedure, shortened: (§1)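 Fluorogenic AMC-peptide cleavage in 20 mM Hepes pH 7.4, 150 mM NaCl, 0.02% Tween 20; 100 μM stock substrate dilution (Glp-Pro-Arg-AMC for thrombin/trypsin; Pro-Phe-Arg-AMC or Boc-Leu-Gly-Arg-AMC for Factor Xa). Enzyme diluted to 0.5 nM, added last to two-fold compound series; kinetic read at 30° C, 30 min (Factor Xa 60 min); IC50 fitted.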

[3] = system: Trypsin; assay: Dose response assay for protease inhibitors: trypsin; assay type: biochemical; conditions: selectivity, trypsin over Factor XIa
Procedure, shortened: as §1

[4] = target: Factor Xa (Homo sapiens (Human), UniProt P00742); assay: Dose response assay for protease inhibitors: Factor Xa; assay type: biochemical; conditions: selectivity, Factor Xa over Factor XIa
Procedure, shortened: as §1

[5] = system: Caco-2 cells; assay: Caco-2 cell permeability assay; assay type: in vitro ADME, human; conditions: Papp, 10 μM, 37° C.
Procedure: (§2) The following procedure was used to determine the ability of a test compound to cross Caco-2 cells (human intestinal epithelial cells derived from a colorectal adenocarcinoma). The cells were seeded at 1×10^5 cells/cm^2 in 96-well Multiscreen™ plates (Millipore). Permeability assays were performed with the cells at days 21-25 post-seeding. Cells are typically used for 15 consecutive passages in culture.
(§3) This assay can be performed in either the apical to basolateral (A-B) or basolateral to apical (B-A) direction. The test compound was prepared at 10 μM in HBSS-MES (pH 6.5) or HBSS-HEPES (pH 7.4) with a final DMSO concentration of 1%. The working solution was then centrifuged and the supernatant added to the donor side. The assay plate was incubated at 37° C. with gentle shaking for 60 min or 40 min for the A-B or B-A assay, respectively. Samples were aliquoted from the donor side at time zero and the end point, and from the receiver side at the end point.
(§4) Reference compounds, propranolol (highly permeable), labetalol (moderately permeable), ranitidine (poorly permeable), and colchicine (P-glycoprotein substrate) were included in each assay.
(§5) Samples are analyzed by HPLC-MS/MS using selected reaction monitoring. The HPLC system consists of a binary LC pump with autosampler, a C-18 column, and a gradient.
(§6) The apparent permeability coefficient (Papp) of the test compound (Equation 2) and its recovery (Equation 3) are calculated as follows:
(§7) [formula] wherein A is the surface area of the cell monolayer (0.11 cm^2), C is concentration of the test compound expressed as peak area, D denotes donor, and R is receiver. “0”, “mid,” and “end” denote time at zero, mid-point, and end of the incubation, respectively. Δt is the incubation time. V is the volume of the donor or receiver.
(§8) This is most likely due to non-specific binding or degradation.

[6] = Aqueous solubility in PBS by HPLC-UV/VIS; assay type: physicochemical; conditions: PBS pH 7.4, 2% DMSO, 24 h at room temperature
Procedure: The following procedure was used to determine the aqueous solubility of a test compound in phosphate buffered saline (PBS-NaCl 137 mM, KCl 2.7 mM, Na2HPO4 8.1 mM, KH2PO4 1.5 mM, pH 7.4) in 96-well plate format by HPLC-UV/VIS analysis. The test compound was prepared at 200 μM in PBS from a 10 mM DMSO stock solution. The final DMSO concentration was 2%. The PBS buffer samples were mixed thoroughly followed by incubation at room temperature for 24 h. At the end of the incubation, the PBS buffer samples were centrifuged and supernatants analyzed by HPLC. The aqueous solubility (μM) of the test compound in PBS was determined by comparing the peak area of the principal peak in the calibration standard (200 μM) with the peak area of the corresponding peak in each of the PBS samples. The range of the assay was approximately 0.5 μM to 200 μM. The reference compounds used in each assay were metoprolol, rifampicin, ketoconazole, phenytoin, haloperidol, simvastatin, diethylstilbestrol, and tamoxifen ranking from fully soluble (200 μM) to poorly soluble (<1 μM).

[7] = system: human plasma protein; assay: Plasma protein binding by equilibrium dialysis; assay type: in vitro ADME; conditions: pooled human plasma, 10 μM, 4 hours at 37° C.
Procedure: (§9) The following procedure was used to determine the plasma protein binding of a test compound in pooled plasma from human (mixed gender) via equilibrium dialysis in a 96-well plate format. The dialysate compartment was loaded with phosphate-buffered saline (pH 7.4) and the sample side was loaded with plasma spiked with the test compound at a concentration of 10 μM. After loading, samples were covered and incubated for 4 hours at 37° C. After incubation, each compartment was sampled, diluted with acetonitrile/buffer and centrifuged. The supernatants were analyzed by HPLC-MS/MS. The analyte peak areas obtained from HPLC-MS/MS analysis of each sample were used to calculate protein binding according to the following equation (Equation 4):
(§10) [formula] where: AREAp=Peak area of analyte in protein matrix; AREAb=Peak area of analyte in buffer.
(§11) The amount measured in the plasma compartment included both free and bound drug, while that on the buffer side represented free drug only; the differences were used to calculate the percentage plasma protein bound. Three reference compounds were tested in each assay: acebutolol, quinidine and warfarin.

[8] = Caco-2 cell permeability assay; assay type: in vitro ADME, human; conditions: human, 37° C.
Procedure: as §2, §3, §4, §5, §6, §7, §8

[9] = Plasma protein binding by equilibrium dialysis; assay type: in vitro ADME; conditions: both sexes, pH 7.4, pooled human plasma, 4 hours at 37° C., read-out: PPB (%)
Procedure: as §9, §10, §11

[10] = Metabolic stability in dog hepatocytes; assay type: in vitro ADME; conditions: pooled cryopreserved hepatocytes; beagle dog hepatocytes, 2 μM compound; read-out: Dog Hepatocyte Stability (t1/2)
Procedure: The following procedure was used to determine the stability of test compounds in beagle dog hepatocytes in a 96-well plate format. The test compounds, including the controls, imipramine and 7-ethoxycoumarin, were dissolved at 10 mM in DMSO, followed by further 5-fold dilution with DMSO to 2 mM. Pooled cryopreserved beagle dog hepatocytes were thawed and transferred into complete medium. Cells were gently centrifuged (700 rpm for 5 min) and the pellet rinsed with KHB (Krebs Henseleit buffer). Cells were resuspended, counted using Trypan blue, and adjusted to 1 million cells/mL in KHB buffer. The 2 mM compound stock solutions were diluted 10-fold with acetonitrile, followed by a further 50-fold dilution with KHB buffer. 200 μL of these compound solutions were transferred to 96-well polypropylene assay plates and an equal volume of the hepatocyte solution was added and mixed to initiate the reaction (final assay concentrations were 2 μM compound and 500,000 cells/mL). Assay plates were incubated at 37° C. in 5% CO2 with gentle agitation. 50 μL aliquots were removed at multiple time points out to 180 minutes and quenched with 6 volumes of cold acetonitrile (containing 250 ng/mL of carbutamide and chrysin as internal standards) to terminate the reaction and precipitate protein. Quenched samples were maintained on ice. The quenched samples were centrifuged at 2000×g (3100 rpm) for 10 minutes at 4° C. 50 μL aliquots of the supernatants were removed and diluted with 100 μL Milli-Q water to reduce the % organic content prior to bioanalysis by LC-MS/MS. Peak areas corresponding to the test compound were recorded. The compound remaining was calculated by comparing the peak area at each time point to time zero. Data were analyzed and results were calculated using Microsoft Excel 2010.

Sequence of Factor Xa (P00742 235-488): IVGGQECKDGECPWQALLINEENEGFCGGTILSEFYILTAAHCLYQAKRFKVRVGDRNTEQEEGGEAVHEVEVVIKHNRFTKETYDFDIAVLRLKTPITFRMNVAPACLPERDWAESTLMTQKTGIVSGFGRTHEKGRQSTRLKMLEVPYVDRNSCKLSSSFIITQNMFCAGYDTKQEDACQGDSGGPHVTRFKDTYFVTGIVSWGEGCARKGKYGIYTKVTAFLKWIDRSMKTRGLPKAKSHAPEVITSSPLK
Sequence of Factor Xa (P00742 41-179 partner): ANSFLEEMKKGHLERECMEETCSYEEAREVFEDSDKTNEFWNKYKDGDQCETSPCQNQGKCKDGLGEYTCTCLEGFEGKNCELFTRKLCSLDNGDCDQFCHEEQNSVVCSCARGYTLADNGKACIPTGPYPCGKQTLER
Sequence of Factor XIa (P03951 388-625): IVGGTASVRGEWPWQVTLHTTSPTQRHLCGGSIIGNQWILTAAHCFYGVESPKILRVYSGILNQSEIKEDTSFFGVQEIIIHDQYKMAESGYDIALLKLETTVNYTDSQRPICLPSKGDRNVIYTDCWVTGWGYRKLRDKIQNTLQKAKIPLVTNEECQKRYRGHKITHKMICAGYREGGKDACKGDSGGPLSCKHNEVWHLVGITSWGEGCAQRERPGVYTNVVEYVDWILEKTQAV
Sequence of Factor XIa (P03951 19-387 partner): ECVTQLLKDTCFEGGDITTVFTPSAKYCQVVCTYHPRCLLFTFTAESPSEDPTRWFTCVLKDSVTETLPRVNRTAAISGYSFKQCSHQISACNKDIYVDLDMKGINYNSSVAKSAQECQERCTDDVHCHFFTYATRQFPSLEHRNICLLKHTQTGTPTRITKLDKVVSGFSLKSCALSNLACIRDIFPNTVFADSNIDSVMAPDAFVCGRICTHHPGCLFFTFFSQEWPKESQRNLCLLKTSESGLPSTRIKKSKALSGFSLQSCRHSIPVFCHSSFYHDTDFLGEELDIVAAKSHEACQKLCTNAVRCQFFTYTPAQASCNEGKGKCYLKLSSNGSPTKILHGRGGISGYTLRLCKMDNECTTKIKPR

IC50 [1] [µM]	Ratio: Thrombin/FXIa [2]	Ratio: FXa/FXIa [4]	Caco-2 Permeability (A-B) ([5]; apical to basolateral, 60 min)	Caco-2 Permeability (B-A) ([5]; basolateral to apical, 40 min)	Aqueous Solubility (uM, in PBS) [6]	PPB (%) [7]	Papp A→B at 60 min, 10 μM ([8]; Caco-2, apical to basolateral, 60 min) [×10⁻⁶ cm/s]	Papp B→A at 40 min, 10 μM ([8]; Caco-2, basolateral to apical, 40 min) [×10⁻⁶ cm/s]	solubility at 24 h ([6]; phosphate buffered saline, aqueous buffer, kinetic from dmso stock) [µM]	fraction unbound at 4 h, 10 μM [9]	half-life at 2 μM [10] [h]	Molecule	Ratio: Trypsin/FXIa [3]
< 0.01	H (“H” indicates 101-1000)	I (“I” indicates > 500)	P (“P” indicates < 10 × 10^−6 cm/s)	Q (“Q” indicates 11-30 × 10^−6 cm/s)	W (“W” indicates > 100 μM)	Z (“Z” indicates 50-90%)	–	–	–	–	–	(2S,3R)-3-((2-aminopyridin-4-yl)methyl)-N2-(1-methyl-1H-imidazol-2-yl)-N1-((R)-1-(3-fluorophenyl)propyl)-N2-methyl-4-oxoazetidine-1,2-dicarboxamide [Compound 1-79]	G (“G” indicates 1-100)
< 0.01	H (“H” indicates 101-1000)	I (“I” indicates > 500)	–	–	–	–	< 10	11 to 30	> 100	0.1 to 0.5	–	CC[C@@H](NC(=O)N1C(=O)[C@H](Cc2ccnc(N)c2)[C@H]1C(=O)N(C)c1nccn1C)c1cc(F)ccc1F [Compound 1-84, (2S,3R)-3-((2-aminopyridin-4-yl)methyl)-N2-(1-methyl-1H-imidazol-2-yl)-N1-((R)-1-(2,5-difluorophenyl)propyl)-N2-methyl-4-oxoazetidine-1,2-dicarboxamide]	G (“G” indicates 1-100)
< 0.01	H (“H” indicates 101-1000)	I (“I” indicates > 500)	–	–	–	–	–	–	–	–	> 4	CC[C@@H](NC(=O)N1C(=O)[C@H](Cc2cc(C)nc(N)c2)[C@H]1C(=O)N(C)c1ccn(C)n1)c1ccccc1 [Compound 1-48, (2S,3R)-3-((2-amino-6-methylpyridin-4-yl)methyl)-N2-(1-methyl-1H-pyrazol-3-yl)-N1-((R)-1-phenylpropyl)-N2-methyl-4-oxoazetidine-1,2-dicarboxamide]	G (“G” indicates 1-100)
